{"source": "patent US20240027453A1", "about": "“METHOD FOR DETECTION AND QUANTITATIVE MONITORING OF INFECTIONS WITH HERPESVIRUSES” (The Trustees of Princeton University, priority 2020, published 2024)", "test_system": "HCMV", "format": "cell-based", "conditions": "for UL47 (P16784) protein, numerical value of heatmap FIG. 6C / UL69 (P16749) protein, numerical value of heatmap FIG. 6C / UL70 (P17149) protein, numerical value of heatmap FIG. 6C / UL83 (P06725) protein, numerical value of heatmap FIG. 6C / UL132 (P69338) protein, numerical value of heatmap FIG. 6C / US15 (P09718) protein, numerical value of heatmap FIG. 6C / sp|P16810|IR12_HCMVA (P16810) protein, numerical value of heatmap FIG. 6C / DUT (P16824) protein, numerical value of heatmap FIG. 6C / TRM3 (P16732) protein, numerical value of heatmap FIG. 6C / TRX1 (P16783) protein, numerical value of heatmap FIG. 6C / TRX2 (P16728) protein, numerical value of heatmap FIG. 6C / UL24 (P16760) protein, numerical value of heatmap FIG. 6C / UL40 (P16780) protein, numerical value of heatmap FIG. 6C / UL49 (P16786) protein, numerical value of heatmap FIG. 6C / sp|P16808|IR10_HCMVA (P16808) protein, numerical value of heatmap FIG. 6C: LL", "description": "In example herpesvirus PRM assay methods shown herein, cell pellets were lysed in 2% SDS, 100 mM NaCl, 0.5 mM EDTA, 50 mM Tris, pH 8.2, and 50 μg of protein was reduced and alkylated with 25 mM TCEP and 50 mM CAM respectively for 20 min at 70° C. Proteins were then precipitated via methanol chloroform precipitation (Wessel & Flugg, Anal Biochem. 138(1):141-143, 1984), resuspended in 50 mM HEPES, pH 8.2 and digested overnight with trypsin (50:1 protein:enzyme w/w ratio). Digested peptides were desalted by SDB-RPS StageTip as previously described (Lum et al., Cell Syst., 7(6):[…], 2018; Greco et al., Methods Mol Biol 1410:39-63, 2016; Federspiel & Cristea, Methods Mol Biol., 1977:115-143, 2019).\nPeptides (1.0 μg on column) were analyzed by LC-MS/MS using a Dionex Ultimate 3000 UHPLC coupled online to an EASYSpray ion source and a Q Exactive HF. Peptides were separated on an EASYSpray C18 column (75 μm×25 cm) heated to 50° C. using a linear gradient of 5% B to 32% B over 60 min at a flow rate of 250 nL/min and were ionized at 1.7 kv. Mobile phase A consisted of 0.1% FA in H2O and mobile phase B consisted of 0.1% FA, 2.9% H2O in ACN.\nThe PRM method was controlled by a peptide inclusion list with retention time windows of 6 min for selected precursor ions.\nThe PRM assay was developed and analyzed using the open-source software Skyline (Maclean et al., Bioinformatics 26(7):966-968, 2010). Summed area under the curve of 3-4 transitions per peptide was used for quantitation. Targeted peptides were normalized to host protein loading control peptides. Peptide values for each sample were scaled to the average of each peptide across all runs. The average of multiple peptides was used as the inferred value for the protein measurement when more than one peptide was quantified (Federspiel et al., PLoS Biol. 17(9):e3000437. Doi: 10.1371/journal.pbio.3000437). PRM quantitation data were graphed using the Python Seaborn and Matplotlib libraries.\nMRC5 primary human fibroblasts (HFs) (ATCC CCL-171) were used as the model system for HSV-1 and HCMV infections and were cultured in complete growth medium (DMEM supplemented with 10% fetal bovine serum and 1% penicillin-streptomycin antibiotics) at 37° C. and 5% CO2. iSLK.219 cells harboring latent KSHV (a gift from Dr. Britt Glaunsinger, University of California, Berkeley) were grown in complete growth medium supplemented with 500 μg/ml hygromycin (ThermoFisher Scientific, 10687010) at 37° C. and 5% CO2. All cells were used for experiments within a maximum of 10 passages.\nWild type HSV-1 strain 17+ (a gift from Beate Sodeik, Hannover Medical School, Hannover, Germany) was propagated as previously described (Diner et al., 2015). Briefly, PO stocks were generated by electroporating pBAC-HSV-1 into U-2 OS cells. […] In a similar manner, wild type HCMV strain AD169 was produced from BAC electroporation into HFs and working stocks were propagated by infecting HFs at a low level. In both cases, cell-associated virus was released by sonication, combined with supernatant virus, then concentrated by ultracentrifugation (20,000 rpm, 2 hours, 4° C. with SW28 swinging bucket rotor [Beckman Coulter]) over a 10% ficoll (HSV-1) or 20% sorbitol (HCMV) cushion. Virus stock titers were determined by plaque assay for HSV-1 or tissue culture infectious dose (TCID50) for HCMV and infections were performed at a multiplicity of infection (MOI) of 3.\n12 hours prior to virus infection or reactivation, cells were treated with either the small molecule drug or DMSO/PBS control at an equivalent volume. […] For infection cycles lasting longer than 24 hours, small molecule drugs were re-added to the cell culture medium every 24 hours. Upon collection, cells were rinsed with PBS, scraped into a microcentrifuge tube, pelleted by centrifugation, and rinsed again with PBS.", "note": "Where two headings read alike, the source gives them in different places."}
{"smiles": "Nc1ccn(C[C@@H](CO)OCP(=O)(O)O)c(=O)n1", "note": "[CDV, cidofovir]", "values": [{"measurement": "UL47 (P16784) protein, numerical value of heatmap FIG. 6C", "setting": "timepoint 48", "result": 0.03052}, {"measurement": "UL69 (P16749) protein, numerical value of heatmap FIG. 6C", "setting": "timepoint 48", "result": 0.2559}, {"measurement": "UL70 (P17149) protein, numerical value of heatmap FIG. 6C", "setting": "timepoint 48", "result": 0.3143}, {"measurement": "UL83 (P06725) protein, numerical value of heatmap FIG. 6C", "setting": "timepoint 48", "result": 0.03791}, {"measurement": "UL132 (P69338) protein, numerical value of heatmap FIG. 6C", "setting": "timepoint 48", "result": 0.1131}, {"measurement": "US15 (P09718) protein, numerical value of heatmap FIG. 6C", "setting": "timepoint 48", "result": 1.201}, {"measurement": "sp|P16810|IR12_HCMVA (P16810) protein, numerical value of heatmap FIG. 6C", "setting": "timepoint 48", "result": 0.2103}, {"measurement": "DUT (P16824) protein, numerical value of heatmap FIG. 6C", "setting": "timepoint 72", "result": 0.6275}, {"measurement": "TRM3 (P16732) protein, numerical value of heatmap FIG. 6C", "setting": "timepoint 72", "result": 0.4913}, {"measurement": "TRX1 (P16783) protein, numerical value of heatmap FIG. 6C", "setting": "timepoint 72", "result": 0.3363}, {"measurement": "TRX2 (P16728) protein, numerical value of heatmap FIG. 6C", "setting": "timepoint 72", "result": 0.3619}, {"measurement": "UL24 (P16760) protein, numerical value of heatmap FIG. 6C", "setting": "timepoint 72", "result": 0.3923}, {"measurement": "UL40 (P16780) protein, numerical value of heatmap FIG. 6C", "setting": "timepoint 72", "result": 0.7811}, {"measurement": "UL47 (P16784) protein, numerical value of heatmap FIG. 6C", "setting": "timepoint 72", "result": 0.4114}, {"measurement": "UL49 (P16786) protein, numerical value of heatmap FIG. 6C", "setting": "timepoint 72", "result": 0.5948}, {"measurement": "UL69 (P16749) protein, numerical value of heatmap FIG. 6C", "setting": "timepoint 72", "result": 0.6759}, {"measurement": "UL70 (P17149) protein, numerical value of heatmap FIG. 6C", "setting": "timepoint 72", "result": 0.743}, {"measurement": "UL83 (P06725) protein, numerical value of heatmap FIG. 6C", "setting": "timepoint 72", "result": 0.4276}, {"measurement": "UL132 (P69338) protein, numerical value of heatmap FIG. 6C", "setting": "timepoint 72", "result": 0.4516}, {"measurement": "US15 (P09718) protein, numerical value of heatmap FIG. 6C", "setting": "timepoint 72", "result": 0.8899}, {"measurement": "sp|P16808|IR10_HCMVA (P16808) protein, numerical value of heatmap FIG. 6C", "setting": "timepoint 72", "result": 0.2743}, {"measurement": "sp|P16810|IR12_HCMVA (P16810) protein, numerical value of heatmap FIG. 6C", "setting": "timepoint 72", "result": 0.6875}, {"measurement": "DUT (P16824) protein, numerical value of heatmap FIG. 6C", "setting": "timepoint 96", "result": 0.7823}, {"measurement": "TRM3 (P16732) protein, numerical value of heatmap FIG. 6C", "setting": "timepoint 96", "result": 0.7025}, {"measurement": "TRX1 (P16783) protein, numerical value of heatmap FIG. 6C", "setting": "timepoint 96", "result": 0.8409}, {"measurement": "TRX2 (P16728) protein, numerical value of heatmap FIG. 6C", "setting": "timepoint 96", "result": 0.8413}, {"measurement": "UL24 (P16760) protein, numerical value of heatmap FIG. 6C", "setting": "timepoint 96", "result": 0.7085}, {"measurement": "UL40 (P16780) protein, numerical value of heatmap FIG. 6C", "setting": "timepoint 96", "result": 0.7467}, {"measurement": "UL47 (P16784) protein, numerical value of heatmap FIG. 6C", "setting": "timepoint 96", "result": 0.7604}, {"measurement": "UL69 (P16749) protein, numerical value of heatmap FIG. 6C", "setting": "timepoint 96", "result": 0.9032}, {"measurement": "UL70 (P17149) protein, numerical value of heatmap FIG. 6C", "setting": "timepoint 96", "result": 0.8327}, {"measurement": "UL83 (P06725) protein, numerical value of heatmap FIG. 6C", "setting": "timepoint 96", "result": 1.027}, {"measurement": "UL132 (P69338) protein, numerical value of heatmap FIG. 6C", "setting": "timepoint 96", "result": 0.6887}, {"measurement": "US15 (P09718) protein, numerical value of heatmap FIG. 6C", "setting": "timepoint 96", "result": 0.6108}, {"measurement": "sp|P16808|IR10_HCMVA (P16808) protein, numerical value of heatmap FIG. 6C", "setting": "timepoint 96", "result": 0.6859}, {"measurement": "sp|P16810|IR12_HCMVA (P16810) protein, numerical value of heatmap FIG. 6C", "setting": "timepoint 96", "result": 0.5726}, {"measurement": "DUT (P16824) protein, numerical value of heatmap FIG. 6C", "setting": "timepoint 120", "result": 1.034}, {"measurement": "TRM3 (P16732) protein, numerical value of heatmap FIG. 6C", "setting": "timepoint 120", "result": 0.9855}, {"measurement": "TRX1 (P16783) protein, numerical value of heatmap FIG. 6C", "setting": "timepoint 120", "result": 1.114}, {"measurement": "TRX2 (P16728) protein, numerical value of heatmap FIG. 6C", "setting": "timepoint 120", "result": 1.493}, {"measurement": "UL24 (P16760) protein, numerical value of heatmap FIG. 6C", "setting": "timepoint 120", "result": 1.171}, {"measurement": "UL40 (P16780) protein, numerical value of heatmap FIG. 6C", "setting": "timepoint 120", "result": 0.9491}, {"measurement": "UL47 (P16784) protein, numerical value of heatmap FIG. 6C", "setting": "timepoint 120", "result": 0.9878}, {"measurement": "UL49 (P16786) protein, numerical value of heatmap FIG. 6C", "setting": "timepoint 120", "result": 0.6463}, {"measurement": "UL69 (P16749) protein, numerical value of heatmap FIG. 6C", "setting": "timepoint 120", "result": 1.467}, {"measurement": "UL70 (P17149) protein, numerical value of heatmap FIG. 6C", "setting": "timepoint 120", "result": 1.255}, {"measurement": "UL83 (P06725) protein, numerical value of heatmap FIG. 6C", "setting": "timepoint 120", "result": 1.677}, {"measurement": "UL132 (P69338) protein, numerical value of heatmap FIG. 6C", "setting": "timepoint 120", "result": 0.8677}, {"measurement": "US15 (P09718) protein, numerical value of heatmap FIG. 6C", "setting": "timepoint 120", "result": 0.4974}, {"measurement": "sp|P16808|IR10_HCMVA (P16808) protein, numerical value of heatmap FIG. 6C", "setting": "timepoint 120", "result": 0.9054}, {"measurement": "sp|P16810|IR12_HCMVA (P16810) protein, numerical value of heatmap FIG. 6C", "setting": "timepoint 120", "result": 0.762}, {"measurement": "levels of HCMV IE and E proteins", "setting": "early time points", "result": "decreased levels"}]}
